Laboratory results: patent US20230414515A1, “ACETIC ACID AS PROCESSING AID IN SPRAY DRYING FOR BASIC DRUGS” (Lonza Bend Inc., priority 2020, published 2023)
In brackets after ≈: the same amount, converted by molar mass. One block for each molecule: values may come before it.

Key:
[1] = cited from earlier work; for basic pKa: pH at which half of the basic sites are protonated
[2] = Solubility of dasatinib in methanol (saturated solution, TGA); type: physicochemical; details: organic solvent or mixture, thermodynamic from solid, 25° C., analyzed by TGA
Method: Dasatinib free base was recrystallized from methanol and dried. Crystalline dasatinib was added in excess to methanol to form a saturated solution at 25° C. The solution was analyzed by TGA and found to contain 3.1 mg/mL dasatinib.

physchem = details: 20 °C, organic solvent or mixture, thermodynamic from solid
Method: The solubility of gefitinib in solvent mixtures with acetic acid were obtained by suspending 300 mg of crystalline gefitinib in 5 mL of solvent (methanol:water) containing 150 microliters of acetic acid at 20° C. (3.9 eq of acetic acid). […] The solubility in 100% methanol with acetic acid was determined after separating undissolved solids by centrifugation of a 1 mL aliquot at 10′000 RCF for 3 min after 1 hour of stirring. The supernatant was then analyzed for gefitinib concentration by HPLC.

[3] = Gefitinib solubility in methanol and methanol:water mixtures without acetic acid (HPLC); type: physicochemical; details: thermodynamic from solid, 24 hour stirring
Method: Crystalline gefitinib was added in excess to methanol and methanol:water mixtures to form saturated solutions at 20° C. After 24 hour of stirring, 1 mL aliquots were centrifuged at 10′000 RCF for 3 min.

Structure (SMILES): COc1ccc(-n2nc(C(N)=O)c3c2C(=O)N(c2ccc(N4CCCCC4=O)cc2)CC3)cc1 [Apixaban, apixaban]
acidic pKa ([1]; pH at which half of the acidic site is deprotonated): ca. 13
basic pKa [1]: < 2

Structure (SMILES): N#Cc1ccnc(N2C(=O)CC[C@H]2C(=O)N(c2cncc(F)c2)[C@H](C(=O)NC2CC(F)(F)C2)c2ccccc2Cl)c1 [Ivosidenib, ivosidenib]
basic pKa [1]: ca. 1.81

Structure (SMILES): CCC[C@H](NC(=O)[C@@H]1[C@H]2CCC[C@H]2CN1C(=O)[C@@H](NC(=O)[C@@H](NC(=O)c1cnccn1)C1CCCCC1)C(C)(C)C)C(=O)C(=O)NC1CC1 [VX-950, Telaprevir]
basic pKa [1]: −0.69

solubility [2]: 3.1 mg/mL (≈ 6.35 mM)
Structure (SMILES): Cc1nc(Nc2ncc(C(=O)Nc3c(C)cccc3Cl)s2)cc(N2CCN(CCO)CC2)n1 [dasatinib]
basic pKa [1]: 7.2

solubility at 1 h (physchem; methanol with acetic acid): 31 mg/mL (≈ 69.4 mM)
solubility (physchem; methanol:water 60:40 with acetic acid): > 60 mg/mL
solubility (physchem; methanol:water 70:30 with acetic acid): > 60 mg/mL
solubility (physchem; methanol:water 80:20 with acetic acid): > 60 mg/mL
solubility (physchem; methanol:water 90:10 with acetic acid): > 60 mg/mL
solubility (physchem; methanol:water mixtures with acetic acid): ≥ 60 mg/mL
solubility at 24 h ([3]; methanol:water 60:40, organic solvent or mixture, Methanol:H2O 60:40, 20° C.): 2.1 mg/mL (≈ 4.7 mM)
solubility at 24 h ([3]; methanol:water 70:30, organic solvent or mixture, Methanol:H2O 70:30, 20° C.): 4 mg/mL (≈ 8.95 mM)
solubility at 24 h ([3]; methanol:water 80:20, organic solvent or mixture, Methanol:H2O 80:20, 20° C.): 6.3 mg/mL (≈ 14.1 mM)
solubility at 24 h ([3]; methanol:water 90:10, organic solvent or mixture, Methanol:H2O 90:10, 20° C.): 6 mg/mL (≈ 13.4 mM)
solubility at 24 h ([3]; organic solvent or mixture, Methanol:H2O 100:0, 20° C.): 5.2 mg/mL (≈ 11.6 mM)
Structure (SMILES): COc1cc2ncnc(Nc3ccc(F)c(Cl)c3)c2cc1OCCCN1CCOCC1 [gefitinib]
basic pKa [1]: 6.8
